Measured values: US20260022118A1, “HETEROCYCLIC COMPOUNDS AS NRAS INHIBITORS” (Board of Regents, The University of Texas System, priority 2023, published 2026)

Key:
NRAS G12D C118S = NRAS G12D C118S (Homo sapiens (Human), UniProt P01111, C118S/G12D); assay: NRas G12D Surface Plasmon Resonance (SPR) binding assay; settings: Avi-tagged biotinylated NRAS G12D C118S on streptavidin chip, 25° C., 1:1 kinetic or steady-state fit
Procedure: NRas G12D Surface Plasmon Resonance (SPR) Binding Assay
This Example illustrates that exemplary compounds and salts thereof described herein bind to NRAS G12D as measured by surface plasmon resonance (SPR).
Two liters of 1.03× running buffer (1.03×HBS-P+pH 7.4, containing 0.0103 M HEPES, 0.1545 M NaCl, 0.0515% v/v Surfactant P20 (Cytiva®, BR100671); 5.15 mM MgCl2 (Invitrogen, AM9530G); 0.515 mM TCEP, pH 8.0 (GoldBio®, TCEP25)) was prepared and filter sterilized using a 0.22 μm filter. A 1-L volumetric flask was filled partway with this buffer. A 30-mL volumetric flask was used to measure 30 mL of 100% DMSO (Sigma Aldrich®, 41639-100ML) which was added to the 1-L flask. The solution in the 1-L flask was brought up to 1 L with 1.03× buffer, resulting in a 1.0× assay running buffer containing 1.0×HBS-P+, 5 mM MgCl2, […], and 3% DMSO. Remaining 1.03× buffer was used for preparation of samples and immobilization running buffer.
Samples were prepared in a standard conical-bottomed 384-well microplate by adding 2 μL 10 mM DMSO cpd stock to each well, followed by 8 μL DMSO. A control compound was selected based off of its relatively “fast” kinetics that could be fitted by 1:1 kinetic fitting, as well as by steady-state fitting. Control wells for periodic injection to assess protein activity throughout the assay were also assembled, by diluting 10 mM compound 1:30 in DMSO, then adding 20 μL to the appropriate wells, such that the final concentration of compound would be 10 μM, and the final concentration of DMSO would be 3%. A Biomek™ FXP Laboratory Automation Workstation was used to stamp 20 μL DMSO into all sample wells—minus the control wells—according to the plate map, and then serially dilute 1:3 by mixing and aspirating 10 μL, delivering into the 20 μL of DMSO in the next well, resulting in 10-point serial dilution curves. A Biotek™ Multiflo EL406 Washer Dispenser was used to deliver 80 μL of 1.03× buffer to the compound plate. The plate was mixed 10× by FX, then a final dilution was performed by stamping 18 μL from the compound plate into a 384-well deep-well plate that had also been previously filled with 102 μL 1.03× buffer via the Multiflo. The solution in the deep-well plate was mixed 10× by FX, then sealed with a 384-well microplate foil from Cytiva® (Cytiva® BR100577) and placed on an orbital shaker for 30 minutes at 1000 RPM to ensure complete mixing of the DMSO solution in the buffer. A solvent correction curve was also prepared by making a 4% DMSO solution in 1.03× buffer and diluting in 1.03× buffer such that there were eight solutions of decreasing DMSO concentrations resulting in a high DMSO concentration of 4% and a low concentration of 2% DMSO.
Immobilization running buffer was prepared in a 200-mL volume by diluting 1.03× running buffer prepared above to 1.0×. A Cytiva® Streptavidin chip (Cytiva®, 29104992) was docked into a Biacore™ S200 instrument, and the instrument was then primed three times into the immobilization running buffer. A protein stock of Avi-tagged NRAS G12D C118S was prepared in-house and biotinylated using the Bulk BirA: BirA biotin-protein ligase bulk reaction kit from Avidity (Avidity®, Bulk BirA). Upon completion of the biotinylation reaction, Amicon® ultra 0.5-mL Centrifugal Filters with a MWCO of 3 k Da (Millipore® UFC500396) were used to reduce the free biotin concentration below 0.1 μM in the protein sample over the course of eight desalting cycles, according to the manufacturer's protocol. Resulting protein concentration was not measured directly as an accurate protein concentration is not required for immobilizing protein on the chip surface; however, a theoretical yield of ≤1.5 mg/mL was estimated based off of retained volumes during the desalting process. Reagents for immobilization were prepared as instructed in the Biacore™ 5200 Control Software Immobilization Wizard, including solutions of 1 M NaCl in 50 mM NaOH, and 1 M NaCl in 50 mM NaOH and 50% isopropyl alcohol. […]

[1] = tested on: THP-1 cells expressing G12D (NRAS G12D); assay: Inhibition of NRAS G12D-mediated phosphorylation of ERK (AlphaLISA p-ERK1/2) in THP-1 cells; type: cell-based; settings: Homo sapiens, THP-1, 2 h, 2 hours incubation, HBSS with 0% or 10% FBS, p-ERK1/2 (Thr202/Tyr204) AlphaLISA, read-out: pERK THP-1 IC50
Procedure, shortened: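 THP-1 cells expressing NRAS G12D, seeded in HBSS with 0% or 10% FBS, were exposed to test compound (1% DMSO final) for 2 h. p-ERK1/2 (Thr202/Tyr204) read by AlphaLISA SureFire Ultra. IC50 from curves normalized to no-inhibitor (100%) and 1 μM trametinib (0%) controls.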

Sequence of NRAS G12D C118S (P01111 whole entry G12D/C118S): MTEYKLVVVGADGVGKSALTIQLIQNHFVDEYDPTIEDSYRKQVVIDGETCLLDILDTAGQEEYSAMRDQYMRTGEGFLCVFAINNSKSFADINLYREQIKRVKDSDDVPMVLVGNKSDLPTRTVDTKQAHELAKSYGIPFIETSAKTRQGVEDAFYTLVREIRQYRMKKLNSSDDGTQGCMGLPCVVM

Row | SMILES | Kd (NRAS G12D C118S) [nM] | IC50 [1] [nM]
1 | C#Cc1c(F)ccc2cc(O)cc(-c3ncc4c(c3F)n(C)c(=O)n4C3[C@H]4CNC[C@@H]34)c12 (stereo partly drawn) [Example 45, 3-[(1R,5S)-3-azabicyclo[3.1.0]hexan-6-yl]-6-(8-ethynyl-7-fluoro-3-hydroxy-1-naphthyl)-7-fluoro-1-methyl-imidazo[4,5-c]pyridin-2-one] | 9940 | > 10000
2 | C#Cc1c(F)ccc2cc(O)cc(-c3ncc4c([C@H]5[C@@H]6CNC[C@@H]65)nn(C5C[C@@H]5C)c4c3F)c12 (stereo partly drawn) [Example 46, 4-(3-((1R,5S,6r)-3-azabicyclo[3.1.0]hexan-6-yl)-7-fluoro-1-((1S,2S)-2-methylcyclopropyl)-1H-pyrazolo[4,3-c]pyridin-6-yl)-5-ethynyl-6-fluoronaphthalen-2-ol] | 60.7 | 1940
3 | C#Cc1c(F)ccc2cc(O)cc(-c3ncc4c(C5C6CNCC65)nn(C5CC5(F)F)c4c3F)c12 (centres unmarked) [Example 49, 4-[3-(3-azabicyclo[3.1.0]hexan-6-yl)-1-(2,2-difluorocyclopropyl)-7-fluoro-pyrazolo[4,3-c]pyridin-6-yl]-5-ethynyl-6-fluoro-naphthalen-2-ol] | 81.5 | 438
4 | C#Cc1c(F)ccc2cc(O)cc(-c3ncc4c(N5C[C@@H]6C[C@H](O)[C@H](C5)N6)nn(C)c4c3F)c12 [Example 57, (1S,5S,6S)-3-(6-(8-ethynyl-7-fluoro-3-hydroxynaphthalen-1-yl)-7-fluoro-1-methyl-1H-pyrazolo[4,3-c]pyridin-3-yl)-3,8-diazabicyclo[3.2.1]octan-6-ol] | 737 | 17300
5 | C#Cc1c(F)ccc2cc(O)cc(-c3ncc4c([C@H]5[C@@H]6CNC[C@@H]65)c(C#N)n(C)c4c3F)c12 [Example 58, 3-((1R,5S,6s)-3-azabicyclo[3.1.0]hexan-6-yl)-6-(8-ethynyl-7-fluoro-3-hydroxynaphthalen-1-yl)-7-fluoro-1-methyl-1H-pyrrolo[3,2-c]pyridine-2-carbonitrile] | 300 | 4800
6 | C#CCn1nc([C@H]2[C@@H]3CNC[C@@H]32)c2cnc(-c3cc(O)cc4ccc(F)c(C#C)c34)c(F)c21 [Example 59, 4-(3-((1R,5S,6r)-3-azabicyclo[3.1.0]hexan-6-yl)-7-fluoro-1-(prop-2-yn-1-yl)-1H-pyrazolo[4,3-c]pyridin-6-yl)-5-ethynyl-6-fluoronaphthalen-2-ol] | 1110 | 3470
7 | C#Cc1c(F)ccc2cc(O)cc(-c3ncc4c(N5C[C@H]6CC[C@@H]5CN6)nn(C)c4c3F)c12 [Example 60, 4-(3-((1R,4R)-2,5-diazabicyclo[2.2.2]octan-2-yl)-7-fluoro-1-methyl-1H-pyrazolo[4,3-c]pyridin-6-yl)-5-ethynyl-6-fluoronaphthalen-2-ol] | 2550 | 23000
8 | C#Cc1c(F)ccc2cc(O)cc(-c3nc(OC)c4c([C@H]5[C@@H]6CNC[C@@H]65)nn(C5CC5)c4c3F)c12 [Example 61, 4-(3-((1R,5S,6r)-3-azabicyclo[3.1.0]hexan-6-yl)-1-cyclopropyl-7-fluoro-4-methoxy-1H-pyrazolo[4,3-c]pyridin-6-yl)-5-ethynyl-6-fluoronaphthalen-2-ol] | 15.8 | 477
9 | C#Cc1c(F)ccc2cc(O)cc(-c3nc(OC(C)C)c4c([C@H]5[C@@H]6CNC[C@@H]65)nn(C5CC5)c4c3F)c12 [Example 62, 4-(3-((1R,5S,6r)-3-azabicyclo[3.1.0]hexan-6-yl)-1-cyclopropyl-7-fluoro-4-isopropoxy-1H-pyrazolo[4,3-c]pyridin-6-yl)-5-ethynyl-6-fluoronaphthalen-2-ol] | 18.8 | 115
10 | C#Cc1c(F)ccc2cc(O)cc(-c3nc(OCC)c4c([C@H]5[C@@H]6CNC[C@@H]65)nn(C5CC5)c4c3F)c12 [Example 63, 4-(3-((1R,5S,6r)-3-azabicyclo[3.1.0]hexan-6-yl)-1-cyclopropyl-4-ethoxy-7-fluoro-1H-pyrazolo[4,3-c]pyridin-6-yl)-5-ethynyl-6-fluoronaphthalen-2-ol] | 8.29 | 185
11 | C#Cc1c(F)ccc2cc(O)cc(-c3nc(OC4CCC4)c4c([C@H]5[C@@H]6CNC[C@@H]65)nn(C5CC5)c4c3F)c12 [Example 64, 4-(3-((1R,5S,6r)-3-azabicyclo[3.1.0]hexan-6-yl)-4-cyclobutoxy-1-cyclopropyl-7-fluoro-1H-pyrazolo[4,3-c]pyridin-6-yl)-5-ethynyl-6-fluoronaphthalen-2-ol] | 24.3 | 480
12 | C#Cc1c(F)ccc2cc(O)cc(-c3nc(OC4CCCC4)c4c([C@H]5[C@@H]6CNC[C@@H]65)nn(C5CC5)c4c3F)c12 [Example 65, 4-(3-((1R,5S,6r)-3-azabicyclo[3.1.0]hexan-6-yl)-4-(cyclopentyloxy)-1-cyclopropyl-7-fluoro-1H-pyrazolo[4,3-c]pyridin-6-yl)-5-ethynyl-6-fluoronaphthalen-2-ol] | 125 | 1060
13 | C#Cc1c(F)ccc2cc(O)cc(-c3nc(OC(F)F)c4c([C@H]5[C@@H]6CNC[C@@H]65)nn(C5CC5)c4c3F)c12 [Example 66, 4-(3-((1R,5S,6r)-3-azabicyclo[3.1.0]hexan-6-yl)-1-cyclopropyl-4-(difluoromethoxy)-7-fluoro-1H-pyrazolo[4,3-c]pyridin-6-yl)-5-ethynyl-6-fluoronaphthalen-2-ol] | 114 | 1190
14 | C#Cc1c(F)ccc2cc(O)cc(-c3nc(OCC(F)(F)F)c4c([C@H]5[C@@H]6CNC[C@@H]65)nn(C5CC5)c4c3F)c12 [Example 67, 4-(3-((1R,5S,6r)-3-azabicyclo[3.1.0]hexan-6-yl)-1-cyclopropyl-7-fluoro-4-(2,2,2-trifluoroethoxy)-1H-pyrazolo[4,3-c]pyridin-6-yl)-5-ethynyl-6-fluoronaphthalen-2-ol] | 114 | 763
15 | C#Cc1c(F)ccc2cc(O)cc(-c3nc(OC4CC(F)(F)C4)c4c([C@H]5[C@@H]6CNC[C@@H]65)nn(C5CC5)c4c3F)c12 [Example 68, 4-(3-((1R,5S,6r)-3-azabicyclo[3.1.0]hexan-6-yl)-1-cyclopropyl-4-(3,3-difluorocyclobutoxy)-7-fluoro-1H-pyrazolo[4,3-c]pyridin-6-yl)-5-ethynyl-6-fluoronaphthalen-2-ol] | 566 | 2130
16 | C#Cc1c(F)ccc2cc(O)cc(-c3nc(OC4CNC4)c4c([C@H]5[C@@H]6CNC[C@@H]65)nn(C5CC5)c4c3F)c12 [Example 69, 4-(4-(azetidin-3-yloxy)-3-((1R,5S,6r)-3-azabicyclo[3.1.0]hexan-6-yl)-1-cyclopropyl-7-fluoro-1H-pyrazolo[4,3-c]pyridin-6-yl)-5-ethynyl-6-fluoronaphthalen-2-ol] | 1790 | > 10000
